Assay results from patent publication US5278065A, “Recombinant DNA endoding an erythropoietin receptor” (Genetics Institute, Inc., priority 1991, dated 1994).
Like-named read-outs stand apart in the source and are kept apart here. Values belong to the molecule of their own block, whether it stands above or below them.

Columns and labels:
[1] = tested on: recombinant murine EPO receptor expressed in COS cells; experiment: Erythropoietin surface binding assay on COS-EPO-R transfectants (clone 190); parameters: species or system mouse
Procedure: FIG. 5 is a saturation curve showing the binding of iodinated EPO to cells expressing recombinant EPO-receptors. COS-EPO-R transfectants were incubated with various concentrations of radioiodinated human EPO for eight hours at 4° C. Non-specific binding was determined by incubating radioiodinated EPO with COS-1 monolayers, mock treated with the pXM vector (without the EPO-R cDNA insert). Also, for comparison, one binding point was determined for [^125 I]-EPO binding to COS EPO-R transfectants in the presence of […] unlabeled EPO. The inset is a Scatchard plot of the same data. Binding was compared for COS transfectants expressing EPO-R (specific binding) versus COS cells mock-transfected with the pXM plasmid without the EPO-R cDNA insert (non-specific binding). At all EPO concentrations, specific binding was approximately […] the binding to mock-transfected cells. By the above criterion, over 85% of this binding is deemed specific, though the "non-specific" binding could represent low-affinity binding to the transfected EPO receptor. […] Confluent monolayers of MEL cells, grown in 60 mm bacteriophage petri dishes pre-coated with fibronectin, were prepared (Patel and Lodish, supra (1987)). Confluent monolayers of COS-1 cells, transfected by the DEAE dextran method 72 hours before the binding assay with either two micrograms of clone 190 cDNA in pXM or two micrograms of pXM without cDNA insert (mock-transfected) per monolayer, were prepared. Monolayers were washed at 4° C. with HBS/Hepes three times. Radioiodinated EPO (10 pM to 2nM range) was added to each monolayer in LBB. Incubations were performed at 4° C. for eight hours with gentle rocking. Monolayers were washed, solubilized, and counted in the gamma counter as described. Assays for nonspecific binding were performed in which the assay mixture contained a 100-fold excess 1(100 nM) of unlabeled erythropoietin. The radioactivity bound in the assays with excess unlabeled erythropoietin (nonspecific binding) was subtracted from the total binding to yield the specific binding. All binding assays were run in duplicate.

[2] = tested on: EPO receptor on MEL cells; experiment: Erythropoietin surface binding assay on MEL cell monolayers; parameters: species or system mouse; conditions: single affinity; radioiodinated human EPO, 8 hours at 4° C.; read-out: affinity of MEL cell EPO-R for EPO
Procedure: FIG. 4 is a saturation curve showing the binding of iodinated EPO to MEL cells. Non-specific binding was determined by co-incubation with 100 nM of unlabeled EPO. The MEL cells were grown on fibronectin monolayers and were incubated with various concentrations of radioiodinated human EPO for eight hours at 4° C. The specific binding is shown as the difference between total and non-specific binding. The inset is a Scatchard plot of the same data. […] For these experiments, MEL cells, grown as monolayers on fibronectin coated dishes, were incubated for eight hours at 4° C. with ^125 I EPO. Specific binding and nonspecific binding of [^125 I]-EPO, measured in the presence of 100 nM unlabeled EPO was determined. Nonspecific binding was approximately half of the total (=specific plus nonspecific) binding. Because of the relatively low number of EPO-R on MEL cells and, therefore, the small specific binding observed at low concentrations of [^125 I-EPO], in the 10-50 pM range, it is not possible to rule out a high affinity EPO-R in this range. […] Monolayers were washed, solubilized, and counted in the gamma counter as described. […] The radioactivity bound in the assays with excess unlabeled erythropoietin (nonspecific binding) was subtracted from the total binding to yield the specific binding. […]

[3] = purified, homogeneous erythropoietin; cited from earlier work
human EPO receptor = experiment: Erythropoietin surface binding assay on stable CHO lines expressing the human EPO receptor; conditions: one hour at 37° C.
Procedure: Confluent monolayers of MEL cells, grown in 60 mm bacteriophage petri dishes pre-coated with fibronectin, were prepared (Patel and Lodish, supra (1987)). Confluent monolayers of COS-1 cells, transfected by the DEAE dextran method 72 hours before the binding assay with either two micrograms of clone 190 cDNA in pXM or two micrograms of pXM without cDNA insert (mock-transfected) per monolayer, were prepared. Monolayers were washed at 4° C. with HBS/Hepes three times. Radioiodinated EPO (10 pM to 2nM range) was added to each monolayer in LBB. Incubations were performed at 4° C. for eight hours with gentle rocking. Monolayers were washed, solubilized, and counted in the gamma counter as described. Assays for nonspecific binding were performed in which the assay mixture contained a 100-fold excess 1(100 nM) of unlabeled erythropoietin. The radioactivity bound in the assays with excess unlabeled erythropoietin (nonspecific binding) was subtracted from the total binding to yield the specific binding. All binding assays were run in duplicate. The level of cell surface expression of the human EPO receptor was determined by the erythropoietin surface binding assay, described above for the expression of the murine EPO receptor in COS-1 cells, except that radioiodinated EPO, from 10 pM to 2 nM, was bound for one hour at 37° C. in the presence of 0.02% (w/v) sodium azide and 1% (v/v) aprotinin.

[4] = biological target: EPO-responsive splenic erythroblasts; conditions: FVA-injected mice, cited from earlier work
EPO receptor = conditions: most cell surface binding studies; read-out: Kd, single class of binding sites; cited from earlier work
FDCPE cells = experiment: Inhibition of the EPO response of FDCPE cells by secreted EPO receptor; format: cell-based, mouse; conditions: 0.4, 0.8 and 1 u/ml EPO; serial dilutions of CHO conditioned media (ca. 0.5 μg/ml secreted receptor)
Procedure: The FDCPE and 32DE cell lines were further characterized by their dose dependent response to EPO. A 96 well plate was seeded with 1×10^4 cells/well and incubated with EPO (0.0001 to 10 u/ml) for 24 hours and then labelled with [^3 H]-thymidine for 4hr, the cells were collected and counted for thymidine incorporation. The cells respond to EPO dose dependent manner from 0.01 to 1 u/ml.
FDCPE cells were incubated and assayed with either 0.4, 0.8 and 1 u/ml of EPO as described above but also with serial dilutions of media from a CHO line expressing the secreted EPO receptor (ca. 0.5 μg/ml).

Kd (human EPO receptor; CHO cell line 9'.250, 34% of sites, Scatchard analysis, read-out: affinity for EPO, higher affinity sites): 0.126 nM | Kd (human EPO receptor; CHO cell line 9'.250, Scatchard analysis, read-out: affinity for EPO, remainder of sites): 0.66 nM | Kd (human EPO receptor; CHO cell line 10'.1.25, read-out: affinity for EPO, single affinity): 3 nM
Molecule: erythropoietin [EPO]
Kd ([1]; COS transfectants, Scatchard analysis, 8 hours at 4° C., read-out: dissociation constant, high affinity receptor): 0.03 nM | Kd ([1]; COS transfectants, Scatchard analysis, 8 hours at 4° C., read-out: dissociation constant, low affinity receptor): 0.21 nM | Kd ([1]; cell type not stated, read-out: dissociation constant of the high affinity receptor): 0.05 nM | Kd [2]: ~0.24 nM | specific activity [3]: at least 160,000 IU per absorbance unit at 280 nanometers | Kd ([4]; read-out: dissociation constant, high affinity binding site): 0.1 nM | Kd ([4]; read-out: dissociation constant, low affinity binding site): 0.8 nM | Kd (EPO receptor): ~0.8 nM

B1: secreted EPO receptor: secreted human erythropoietin receptor lacking transmembrane and cytoplasmic domains, tested as conditioned media from a CHO line (protein, UniProt P19235 25-250, looked up)
extracellular domain: APPPNLPDPKFESKAALLAARGPEELLCFTERLEDLVCFWEEAASAGVGPGNYSFSYQLEDEPWKLCRLHQAPTARGAVRFWCSLPTADTSSFVPLELRVTAASGAPRYHRVIHINEVVLLDAPVGLVARLADESGHVVLRWLPPPETPMTSHIRYEVDVSAGNGAGSVQRVEILEGRTECVLSNLRGRTRYTFAVRARMAEPSFGGFWSAWSEPVSLLTPSDLDP
modifications: extracellular domain
notes: secreted human erythropoietin receptor lacking transmembrane and cytoplasmic domains, tested as conditioned media from a CHO line
inhibition of [3H]-thymidine incorporation into FDCPE cells (FDCPE cells): inhibited the incorporation of [^3 H]-thymidine into the FDCPE cells
